In patent US5866596A, “3,4-diaryloxazolone derivatives, their methods of preparation and their uses in therapeutics” (Laboratories UPSA, priority 1996, dated 1999):
Read-outs that look alike come from different tables or passages of the source.

What was measured:
[1] = molecular target: T1, COX-2 (purified enzyme from ewe placenta) (Ovis aries, UniProt P79208); assay: Inhibition of COX-2 enzymatic activity (PGE2 by EIA); format: biochemical; details: arachidonic acid 4 μM, mean of 4 determinations; for inhibition at 10 µM: 10^-5 M; for inhibition at 0.1 µM: 10^-7 M
T1 construct: purified enzyme from ewe placenta; from tissue; host or cells: ewe placenta
T1 sequence (P79208 17-603): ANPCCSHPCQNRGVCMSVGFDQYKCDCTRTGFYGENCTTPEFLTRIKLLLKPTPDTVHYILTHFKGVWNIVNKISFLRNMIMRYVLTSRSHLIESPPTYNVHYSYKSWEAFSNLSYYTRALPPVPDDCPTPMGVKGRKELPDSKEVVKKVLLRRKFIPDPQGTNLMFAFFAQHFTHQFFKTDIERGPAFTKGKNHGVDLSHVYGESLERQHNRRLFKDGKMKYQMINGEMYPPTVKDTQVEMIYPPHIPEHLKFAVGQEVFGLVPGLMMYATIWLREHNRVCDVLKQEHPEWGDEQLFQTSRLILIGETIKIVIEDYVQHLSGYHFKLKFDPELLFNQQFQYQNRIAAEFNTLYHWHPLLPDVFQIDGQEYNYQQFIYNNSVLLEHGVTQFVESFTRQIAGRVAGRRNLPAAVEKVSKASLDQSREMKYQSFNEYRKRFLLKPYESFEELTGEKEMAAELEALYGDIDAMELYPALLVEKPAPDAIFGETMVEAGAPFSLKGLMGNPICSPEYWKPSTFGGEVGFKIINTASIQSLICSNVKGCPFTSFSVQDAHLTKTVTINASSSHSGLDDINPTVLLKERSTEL
Description: (§1) Arachidonic acid (6 μM for COX-1, 4 μM for COX-2) is added to the reaction medium and incubation is carried out for 5 minutes at 25° C. When incubation has ended, the enzymatic reaction is stopped by the addition of 1N HCl and the PGE2 produced is determined by EIA. The results are expressed as the percentage inhibition of the COX-1 and COX-2 enzymatic activities and correspond to mean (±) standard deviations from the average of 4 determinations.

[2] = system: arthritis with kaolin (pain response); assay: Analgesic activity: test of arthritis with kaolin; format: in vivo; details: 30 mg/kg oral, rats, 5 hours 30 minutes after administration, n=10 per dose
Description: (§2) The anti-inflammatory activity of the compounds of the Examples has been evaluated according to the method of oedema with carrageenan and the analgesic activity has been evaluated according to the method of arthritis with kaolin.
The analgesic activity is evaluated in rats by the test of arthritis with kaolin. Thirty minutes after intra-articular administration of an aqueous 10% suspension of kaolin, the product is administered orally at a rate of 1 ml/100 g (n=10 animals per dose). The percentage inhibition of the animal's pain response (by rating the way it walks) is calculated 5 hours 30 minutes after administration of the product.

oedema with carrageenan = assay: Anti-inflammatory activity: test of oedema with carrageenan; format: in vivo; details: Rattus norvegicus, 30 mg/kg oral, rats, after 3 hours, n=6 per dose, read-out: Anti-inflammatory activity, % inhibition (volume of the oedema)
Description: as §2
The anti-inflammatory activity is evaluated in rats by the test of oedema with carrageenan. The product is administered orally at a rate of 2.5 ml/100 g (n=6 animals per dose) 2 hours 30 minutes after a water overload taken orally (2.5 ml/100 g). One hour after administration of the product, the oedema is induced by plantar subcutaneous injection of aqueous 2% carrageenan solution. The percentage inhibition of the volume of the oedema is calculated after 3 hours by measuring the volume of the paw with the aid of a mercury plethysmometer.

[3] = Gastric tolerance (ulcerogenic dose); parameters: species or system Charles River rats strain CD; details: rat, in vivo
Description: The gastic tolerance study is carried out in Charles River rats strain CD weighing 110 to 150 g. The animals are placed on a water diet 24 hours before administration of the product or the vehicle alone, via the oral route (1 ml/100 g) (n=6 animals per dose). Six hours after administration,the animals are sacrificed and the stomachs are removed and opened along the greater curvature. The number of haemorrhagic spots and lines per stomach identified macroscopically permits establishing an ulceration index (0: no lesion, 1: 1 to 2 lesions, 2: 3 to 4 lesions, 3: 5 to 8 lesions, 4: 9 to 16 lesions, 5: more than 17 lesions) and estimating the 50% ulcerogenic dose (UD50 =dose expressed in mg/kg inducing 4 to 5 lesions).

[4] = molecular target: T2, COX-1 (purified enzyme from ram seminal vesicles) (Ovis aries, UniProt P05979); assay: Inhibition of COX-1 enzymatic activity (PGE2 by EIA); format: biochemical; details: arachidonic acid 6 μM, mean of 4 determinations; for inhibition at 10 µM: 10^-5 M; for inhibition at 0.1 µM: 10^-7 M
T2 construct: purified enzyme from ram seminal vesicles; from tissue; host or cells: ram seminal vesicles
T2 sequence (P05979 25-600): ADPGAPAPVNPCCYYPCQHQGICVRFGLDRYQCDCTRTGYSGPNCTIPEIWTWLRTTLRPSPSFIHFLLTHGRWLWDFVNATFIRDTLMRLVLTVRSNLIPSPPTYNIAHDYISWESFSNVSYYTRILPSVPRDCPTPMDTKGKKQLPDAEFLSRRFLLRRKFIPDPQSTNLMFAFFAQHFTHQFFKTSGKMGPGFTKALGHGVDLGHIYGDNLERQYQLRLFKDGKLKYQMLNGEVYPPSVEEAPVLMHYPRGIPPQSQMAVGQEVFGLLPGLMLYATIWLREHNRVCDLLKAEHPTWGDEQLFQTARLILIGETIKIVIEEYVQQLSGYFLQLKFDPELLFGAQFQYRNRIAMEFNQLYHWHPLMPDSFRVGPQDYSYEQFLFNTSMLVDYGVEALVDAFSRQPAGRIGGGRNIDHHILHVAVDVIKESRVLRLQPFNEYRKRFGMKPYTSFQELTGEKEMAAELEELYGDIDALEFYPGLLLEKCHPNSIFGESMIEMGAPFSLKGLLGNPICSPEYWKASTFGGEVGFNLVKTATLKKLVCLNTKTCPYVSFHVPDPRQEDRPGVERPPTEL
Description: as §1

inhibition at 10 µM [1]	inhibition at 0.1 µM [1]	inhibition at 10 µM [4]	inhibition at 0.1 µM [4]	SMILES	Analgesic activity, % inhibition (pain response) [2]	inhibition in vivo at 30 mg/kg (oedema with carrageenan)	TD50 at 6 h ([3]; po)	TD50 at 6 h ([3]; rats, oral, 6 hours after administration, dose inducing 4 to 5 lesions, read-out: UD50 (confidence limit), 50% ulcerogenic dose)
78%	16%	0%	0%	CS(=O)(=O)c1ccc(-c2coc(=O)n2-c2ccccc2)cc1 [Example 16, 3-phenyl-4-(4-methanesulfonylphenyl)-3H-oxazol-2-one]	60%	45%	–	–
85%	11%	0%	0%	CS(=O)(=O)c1ccc(-c2coc(=O)n2-c2ccc(Cl)cc2)cc1 [Example 17, 3-(4-chlorophenyl)-4-(4-methanesulfonylphenyl)-3H-oxazol-2-one]	42%	32%	–	–
92%	14%	0%	0%	Cc1cccc(-n2c(-c3ccc(S(C)(=O)=O)cc3)coc2=O)c1 [Example 18, 3-(3-methylphenyl)-4-(4-methanesulfonylphenyl)-3H-oxazol-2-one]	0%	18%	–	–
87%	18%	0%	0%	CS(=O)(=O)c1ccc(-c2coc(=O)n2-c2cccc(Cl)c2)cc1 [Example 19, 3-(3-chlorophenyl)-4-(4-methanesulfonylphenyl)-3H-oxazol-2-one]	60%	37%	–	–
94%	26%	0%	0%	CS(=O)(=O)c1ccc(-c2coc(=O)n2-c2ccc(Cl)c(Cl)c2)cc1 [Example 20, 3-(3,4-dichlorophenyl)-4-(4-methanesulfonylphenyl)-3H-oxazol-2-one]	75%	48%	–	–
76%	11%	0%	0%	CS(=O)(=O)c1ccc(-c2coc(=O)n2-c2cccc(F)c2)cc1 [Example 21, 3-(3-fluorophenyl)-4-(4-methanesulfonylphenyl)-3H-oxazol-2-one]	–	55%	–	–
88%	12%	–	–	Cc1ccc(-n2c(-c3ccc(S(C)(=O)=O)cc3)coc2=O)cc1 [Example 22, 3-(4-methylphenyl)-4-(4-methanesulfonylphenyl)-3H-oxazol-2-one]	–	42%	–	–
–	–	–	–	COc1ccc2c(c1)c(CC(=O)O)c(C)n2C(=O)c1ccc(Cl)cc1 [indomethacin, reference compound]	–	–	–	8.3 mg/kg

SMILES	inhibition at 10 µM [1]	inhibition at 0.1 µM [1]	inhibition at 10 µM [4]	inhibition at 0.1 µM [4]	Analgesic activity, % inhibition (pain response) [2]	inhibition in vivo at 30 mg/kg (oedema with carrageenan)	TD50 at 6 h ([3]; po)	TD50 at 6 h ([3]; rats, oral, 6 hours after administration, dose inducing 4 to 5 lesions, read-out: UD50 (confidence limit), 50% ulcerogenic dose)
CS(=O)(=O)c1ccc(-c2coc(=O)n2-c2ccc(F)cc2)cc1 [Example 4, 3-(4-fluorophenyl)-4-(4-methanesulfonylphenyl)-3H-oxazol-2-one]	82.7%	12%	0%	0%	55%	53%	> 300 mg/kg	–
